According to US10954214B2 (Janssen Pharmaceutica NV, priority 2016, dated 2021):

What was measured:
[1] = target: full-length MALT1 protein (Strep-MALT1(1-824)-His) (Homo sapiens (Human), UniProt Q9UDY8); assay: MALT1 Biochemical Protease Assay (Ac-LRSR-AMC substrate); conditions: 10 nM FL MALT1, 200 μM Ac-LRSR-AMC, 4 h at RT; read-out: MALT1_Biochemical activity (Ac-LRSR-amc) IC50
Summary of the method: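 Full-length MALT1 pre-incubated with compounds (30 μM to 0.5 nM, 11 threefold steps) for 50 min at RT. After Ac-LRSR-AMC was added, the reaction ran 4 h at RT and AMC fluorescence was read. IC50 and Hill slope from curve fitting against no-enzyme and no-compound controls.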

[2] = tested on: Jurkat cells; assay: PMA Induced IL2 Production In Jurkat Cells; type: cell-based; conditions: Homo sapiens, PMA/Ionomycin, 20 h, read-out: IL-2 prod h Jurkat PMA IC50
Procedure: Jurkat cells were maintained in complete RPMI 1640 media containing 10% fetal bovine serum, 10 mM HEPES, 100 units/mL of penicillin and 100 μg/mL of streptomycin. Prior to the assay, compounds were made 2- to 4-fold serial dilutions in DMSO. A volume of 10 μL of DMSO-diluted compound in each well were further diluted into 240 μL RPMI1640 complete media. Jurkat cells were harvested by centrifuge at 1200 RPM for 5 min, washed one time with RPMI 1640 media, and suspended in fresh complete RPMI 1640 media at concentration of 1.25×10^6 cell/mL. A volume of 160 uL of Jurkat cells (2×10^5 cells) were seeded in each well of 96 well plate-bottom plates. A volume of 20 uL of diluted compound in RMPI 1640 complete media were added to each well and incubated with Jurkat cells for 30 min at 37° C. in a 5% CO2 incubator. A volume 20 μL of diluted PMA/Ionomycin (81 nM/1.3 uM respectively, ebioscience, catalog number 00-4970-93) in RMPI 1640 complete media were added to each well. After incubation at 37° C. in 5% CO2 incubator for 20 h, supernatants were harvested. IL-2 concentration was assessed by ELISA (IL2 Duoset, R&D Systems, catalog number DY202). Colorimetric intensity at 450 nm was read by Spectramax plate reader and analyzed with Softmax Pro software. Cell viability was assessed by Cell Titer Glo kit (Promega, catalog number G7571) using Victor Luminescence reader (Victor 3V 4202938 by Perkin Elmer).

[3] = tested on: IL6 secretion by TMD8 ABC-DLBCL cells; assay: Human IL6 Mesoscale assay (TMD-8); type: cell-based; conditions: Homo sapiens, TMD8; TMD-8 cells, 24 h
Summary of the method: (§1)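 TMD8 or OCI-LY3 cells (100,000/well) were exposed to compounds in 9 twofold dilutions from 15 μM to 58.6 nM (0.3% DMSO) for 24 h at 37 °C. Supernatant IL6 and IL10 were quantified by MSD electrochemiluminescence immunoassay. DMSO defined maximum signal and BTK inhibitor RN486 (30 nM–131 pM) defined maximum inhibition.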

[4] = tested on: IL10 secretion by TMD8 ABC-DLBCL cells; assay: Human IL10 Mesoscale assay (TMD-8); type: cell-based; conditions: Homo sapiens, TMD8; TMD-8 cells, 24 h
Summary of the method: as §1

[5] = tested on: OCI-Ly3 cells; assay: 4-day proliferation assay, OCI-Ly3; type: cell-based, human; conditions: Homo sapiens, 96 h, 4 days incubation, CellTiterGLO, read-out: Anti-proliferation: OCI-LY-3 IC50
Summary of the method: (§2)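 TMD8 and OCI-Ly3 cells were seeded at 10,000 per well and grown 4 days at 37° C, 5% CO2 without beta-mercaptoethanol. Viability was read by CellTiter-Glo luminescence. IC50 and Hill slope were fitted relative to the low control median.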

[6] = tested on: TMD8 cells; assay: 4-day proliferation assay, TMD8; type: cell-based; conditions: Homo sapiens, 96 h, 4 days incubation, CellTiterGLO, read-out: Anti-proliferation: TMD-8 IC50
Summary of the method: as §2

Chain of full-length MALT1 protein (Strep-MALT1(1-824)-His) (Q9UDY8 whole entry): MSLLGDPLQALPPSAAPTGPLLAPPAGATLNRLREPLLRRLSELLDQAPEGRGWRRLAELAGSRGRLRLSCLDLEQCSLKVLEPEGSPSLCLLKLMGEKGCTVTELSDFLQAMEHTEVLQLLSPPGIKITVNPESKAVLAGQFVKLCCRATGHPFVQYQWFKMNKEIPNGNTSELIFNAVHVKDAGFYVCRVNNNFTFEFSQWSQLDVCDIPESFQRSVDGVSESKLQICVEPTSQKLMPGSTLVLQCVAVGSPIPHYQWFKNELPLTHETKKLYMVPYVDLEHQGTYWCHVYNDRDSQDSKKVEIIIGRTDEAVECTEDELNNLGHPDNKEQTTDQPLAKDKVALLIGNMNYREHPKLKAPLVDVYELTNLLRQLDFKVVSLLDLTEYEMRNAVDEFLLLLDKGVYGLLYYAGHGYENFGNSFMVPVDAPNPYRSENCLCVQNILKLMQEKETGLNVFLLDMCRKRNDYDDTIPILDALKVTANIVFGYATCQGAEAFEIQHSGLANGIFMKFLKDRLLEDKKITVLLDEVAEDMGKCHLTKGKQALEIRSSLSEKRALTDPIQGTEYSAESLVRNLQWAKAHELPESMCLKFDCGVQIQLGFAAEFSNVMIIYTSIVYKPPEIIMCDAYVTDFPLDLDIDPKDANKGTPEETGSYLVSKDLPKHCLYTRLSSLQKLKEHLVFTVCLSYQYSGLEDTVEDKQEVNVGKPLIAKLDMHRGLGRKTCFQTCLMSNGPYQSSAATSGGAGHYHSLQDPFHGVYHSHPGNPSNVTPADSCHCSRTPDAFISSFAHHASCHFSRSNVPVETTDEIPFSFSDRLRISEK

Row | Compound | IC50 [1] | IC50 [2] | IC50 [3] | IC50 [4] | IC50 [5] | IC50 [6]
1 | O=C(Nc1ccnc(C(F)(F)F)c1)c1cnn(-c2cccc3ccccc23)c1C(F)(F)F [Cpd 3, 1-(Naphthalen-1-yl)-5-(trifluoromethyl)-N-(2-(trifluoromethyl)pyridin-4-yl)-1H-pyrazole-4-carboxamide] | 191 nM | 160 nM | 219 nM | 138 nM | ~2880 nM | 9550 nM
2 | Cc1ncn(-c2ccc(NC(=O)c3cnn(-c4cncc5ccccc45)c3C(F)(F)F)cc2Cl)n1 [Cpd 55, N-(3-chloro-4-(3-methyl-1H-1,2,4-triazol-1-yl)phenyl)-1-(isoquinolin-4-yl)-5-(trifluoromethyl)-1H-pyrazole-4-carboxamide] | 182 nM | 130 nM | ~93 nM | 195 nM | 540 nM | 5250 nM
3 | O=C(Nc1ccc(-n2nccn2)c(Cl)c1)c1cnn(-c2cncc3ccccc23)c1C(F)(F)F [Cpd 38, N-(3-chloro-4-(2H-1,2,3-triazol-2-yl)phenyl)-1-(isoquinolin-4-yl)-5-(trifluoromethyl)-1H-pyrazole-4-carboxamide] | 20 nM | 21 nM | 46 nM | 14 nM | 1150 nM | 3800 nM
4 | N#Cc1ncc(NC(=O)c2cnn(-c3cncc4ccccc34)c2C(F)(F)F)cc1F [Cpd 41, N-(6-cyano-5-fluoropyridin-3-yl)-1-(isoquinolin-4-yl)-5-(trifluoromethyl)-1H-pyrazole-4-carboxamide] | 891 nM | 300 nM | ~2090 nM | 851 nM | 1580 nM | > 20000 nM
5 | CN1CCC(Oc2ncc(NC(=O)c3cnn(-c4cncc5ccccc45)c3C(F)(F)F)cc2Cl)CC1 [Cpd 45, N-(5-chloro-6-((1-methylpiperidin-4-yl)oxy)pyridin-3-yl)-1-(isoquinolin-4-yl)-5-(trifluoromethyl)-1H-pyrazole-4-carboxamide] | 398 nM | 73 nM | 355 nM | 204 nM | 340 nM | ~9330 nM
6 | CCc1c(C(=O)Nc2cnc(-n3nccn3)c(Cl)c2)cnn1-c1cccc2ncccc12 [Cpd 17, N-(5-Chloro-6-(2H-1,2,3-triazol-2-yl)pyridin-3-yl)-5-ethyl-1-(quinolin-5-yl)-1H-pyrazole-4-carboxamide] | 141 nM | 170 nM | 794 nM |  | ~4370 nM | 9330 nM
7 | N#Cc1cc(NC(=O)c2cnn(-c3cccc4ccncc34)c2C(F)(F)F)cnc1-n1nccn1 [Cpd 19, N-(5-cyano-6-(2H-1,2,3-triazol-2-yl)pyridin-3-yl)-1-(isoquinolin-8-yl)-5-(trifluoromethyl)-1H-pyrazole-4-carboxamide] | 229 nM | 410 nM | 1950 nM |  | 1100 nM | > 20000 nM
8 | COc1ncc(NC(=O)c2cnn(-c3cccc4ncccc34)c2C(F)(F)F)cc1Cl [Cpd 7, N-(5-Chloro-6-methoxypyridin-3-yl)-1-(quinolin-5-yl)-5-(trifluoromethyl)-1H-pyrazole-4-carboxamide] | 41 nM | 130 nM | 166 nM |  | 430 nM | ~14100 nM
9 | Cc1ccc(-n2ncc(C(=O)Nc3cnc(-n4nccn4)c(Cl)c3)c2C(F)(F)F)c2cccnc12 [Cpd 28, N-(5-Chloro-6-(2H-1,2,3-triazol-2-yl)pyridin-3-yl)-1-(8-methylquinolin-5-yl)-5-(trifluoromethyl)-1H-pyrazole-4-carboxamide] | 68 nM | 200 nM | 141 nM |  | 1510 nM | 6610 nM
10 | O=C(Nc1cnc(-n2nccn2)c(Cl)c1)c1cnn(-c2cccc3ncc(F)cc23)c1C(F)(F)F [Cpd 25, N-(5-Chloro-6-(2H-1,2,3-triazol-2-yl)pyridin-3-yl)-1-(3-fluoroquinolin-5-yl)-5-(trifluoromethyl)-1H-pyrazole-4-carboxamide] | 72 nM | 210 nM | 174 nM |  | 3310 nM | ~14100 nM
11 | Cc1cc2ccccc2c(-n2ncc(C(=O)Nc3cnc(-n4nccn4)c(Cl)c3)c2C(F)(F)F)n1 [Cpd 9, N-(5-Chloro-6-(2H-1,2,3-triazol-2-yl)pyridin-3-yl)-1-(3-methylisoquinolin-1-yl)-5-(trifluoromethyl)-1H-pyrazole-4-carboxamide] | 65 nM | 39 nM | 195 nM |  | ~2400 nM | 10700 nM
12 | N#Cc1cncc(NC(=O)c2cnn(-c3cccc4ccccc34)c2C(F)(F)F)c1 [Cpd 5, N-(5-Cyanopyridin-3-yl)-1-(naphthalen-1-yl)-5-(trifluoromethyl)-1H-pyrazole-4-carboxamide] | 214 nM | 140 nM | 282 nM |  | ~780 nM | > 20000 nM

More lines, main results first:

Row | IC50 [1] | IC50 [2] | IC50 [3] | IC50 [4] | IC50 [5] | Compound | IC50 [6]
13 | 56 nM | 22 nM | ~46 nM | 32 nM | 630 nM | O=C(Nc1cnc(-n2cccn2)c(Cl)c1)c1cnn(-c2cncc3ccccc23)c1C(F)(F)F [Cpd 46, N-(5-Chloro-6-(1H-pyrazol-1-yl)pyridin-3-yl)-1-(isoquinolin-4-yl)-5-(trifluoromethyl)-1H-pyrazole-4-carboxamide] | 9330 nM
14 | 100 nM | 380 nM | 200 nM | 240 nM | 1070 nM | Cc1ncn(-c2ncc(NC(=O)c3cnn(-c4cncc5ccccc45)c3C(F)(F)F)cc2Cl)n1 [Cpd 53, N-(5-Chloro-6-(3-methyl-1H-1,2,4-triazol-1-yl)pyridin-3-yl)-1-(isoquinolin-4-yl)-5-(trifluoromethyl)-1H-pyrazole-4-carboxamide] | ~13500 nM
15 | 45 nM | 96 nM | 62 nM | 126 nM | 200 nM | Cc1ncnn1-c1ccc(NC(=O)c2cnn(-c3cncc4ccccc34)c2C(F)(F)F)cc1Cl [Cpd 51, N-(3-Chloro-4-(5-methyl-1H-1,2,4-triazol-1-yl)phenyl)-1-(isoquinolin-4-yl)-5-(trifluoromethyl)-1H-pyrazole-4-carboxamide] | ~6610 nM
16 | 60 nM | 54 nM | 102 nM | 81 nM | ~260 nM | O=C(Nc1ccc(-n2ccnn2)c(Cl)c1)c1cnn(-c2cncc3ccccc23)c1C(F)(F)F [compound 43, N-(3-chloro-4-(1H-1,2,3-triazol-1-yl)phenyl)-1-(isoquinolin-4-yl)-5-(trifluoromethyl)-1H-pyrazole-4-carboxamide] | 4680 nM
17 | 661 nM | 1860 nM | > 15000 nM |  | ~310 nM | O=C(Nc1cnc(-c2ncco2)c(Cl)c1)c1cnn(-c2cccc3ccncc23)c1C(F)(F)F [Cpd 22, N-(5-chloro-6-(oxazol-2-yl)pyridin-3-yl)-1-(isoquinolin-8-yl)-5-(trifluoromethyl)-1H-pyrazole-4-carboxamide] | 17000 nM
18 | 89 nM | 810 nM | 107 nM |  | 3390 nM | COc1ncc(NC(=O)c2cnn(-c3cncc4ccccc34)c2C(F)(F)F)cc1Cl [Cpd 23, N-(5-chloro-6-methoxypyridin-3-yl)-1-(isoquinolin-4-yl)-5-(trifluoromethyl)-1H-pyrazole-4-carboxamide] | 8320 nM
19 | 91 nM | 23 nM | 112 nM |  | 620 nM | O=C(Nc1ccnc(C(F)(F)F)c1)c1cnn(-c2cccc3ncccc23)c1C(F)(F)F [Cpd 6, 1-(Quinolin-5-yl)-5-(trifluoromethyl)-N-(2-(trifluoromethyl)pyridin-4-yl)-1H-pyrazole-4-carboxamide] | 9330 nM
